The source of these data is patent US8816088B2 (Theravance, Inc., priority 2009, dated 2014).

Structures are written as SMILES. Structures can show the parent of a compound that is named as a salt.

One assay concerns MCh-induced bronchoconstriction. The experiment in a line: Einthoven assay: bronchoprotection against methacholine (MCh)-induced bronchoconstriction. The note with it: Rattus norvegicus, inhaled or nasal, 24 h, read-out: Broncho. at 24 h, Bronchoprotective effect present at 24 h, 100 μg by inhalation, 24 h after administration. The class given is in vivo. Here is the method: This assay measures the ability of a test compound to provide bronchoprotection against methacholine (MCh)-induced bronchoconstriction in a rat. Male Sprague-Dawley rats (Harlan, Indianapolis, Ind.), weighing between 200 g and 350 g, were used for all studies. Test compound or vehicle (sterile deionized water) were dosed by inhalation (1H) over a 10 min period in a pie shaped inhalation chamber (R+S Molds, San Carlos, Calif.) using 5 mL of dosing solution. […] Rats were dosed with 100 μg of test compound unless otherwise indicated. At predetermined time points, rats were anesthetized with an intraperitoneal (IP) injection of 120 mg/kg inactin (thiobutabarbital). A supplemental dose (40 mg/kg, IP) was administered if the animal responded to physical stimuli (e.g. toe pinch). The surgical site was shaved and a 1-2 cm midline incision of the ventral aspect of the neck was made. The jugular vein was isolated and cannulated with a saline-filled polyethylene catheter (PE-50) to allow IV infusion of MCh. Trachea was dissected free and cannulated with a 14G needle (#NE-014, Small Parts, Miami Lakes, Fla.). After placement of the tracheal cannula, each rat was ventilated using a respirator (Model 683, Harvard Apparatus, Inc., MA) set at a stroke volume of 1 mL/100 g body weight (but not exceeding 2.5 mL volume) and a rate of 90 strokes per minute. A T-connector was placed along the respirator expiratory tubing to allow for measurement of changes in ventilation pressure (VP) using a Biopac transducer that was connected to a Biopac […]) pre-amplifier. Body temperature was maintained at 37° C. using a heating pad. Changes in VP were recorded using the Acknowledge Data Collection Software (Santa Barbara, Calif.). Baseline values were collected for at least 2.5 min. Rats were then challenged with non-cumulative intravenous (IV) infusions of 40 and 80 μg/kg MCh. MCh was infused intravenously for 2.5 minutes from a syringe pump (sp210iw, World Precision Instruments, Inc., Sarasota, Fla.) at a rate of 2 mL/kg/min, with a 2 minute interval between the two doses of MCh. Changes in ventilation pressure (cm H2O) in treated animals are expressed as % inhibition of MCh response relative to control animals. Other bronchoconstrictors, such as histamine and acetylcholine, can be used in place of MCh in this assay. Additionally, guinea pigs can be used instead of rats. […] Inhibition greater than or equal to 30 percent at 24 h is indicative of a long duration of action.
For the molecule `CC(Cc1ccc(CC(=O)Nc2cccc(N(C)C(=O)CCN3CCC(OC(=O)Nc4ccccc4-c4ccccc4)CC3)c2)cc1)NC[C@H](O)c1ccc(O)c2[nH]c(=O)ccc12` (stereo partly drawn) [Compound I-53, Biphenyl-2-ylcarbamic acid 1-[2-({3-[2-(4-{2-[(R)-2-hydroxy-2-(8-hydroxy-2-oxo-1,2-dihydroquinolin-5-yl)-ethylamino]propyl}phenyl)acetylamino]phenyl}methyl-carbamoyl)ethyl]piperidin-4-yl ester ditrifluoroacetic acid salt], the inhibition in vivo at 0.1 mg is below 30%. On the same count and under the same terms, under `Cc1cc(CNC[C@H](O)c2ccc(O)c3[nH]c(=O)ccc23)ccc1NC(=O)c1ccc(C)c(N(C)C(=O)CCN2CCC(OC(=O)Nc3ccccc3-c3ccccc3)CC2)c1` [Compound I-28, ditrifluoroacetic acid salt] stands below 30%; under `CC(Cc1cccc(CNC(=O)c2cccc(N(C)C(=O)CCN3CCC(OC(=O)Nc4ccccc4-c4ccccc4)CC3)c2)c1)NC[C@H](O)c1ccc(O)c2[nH]c(=O)ccc12` (stereo partly shown) [Compound I-44, ditrifluoroacetic acid salt], below 30%. On the same count and under the same terms, with `Cc1ccc(C(=O)NCc2cccc(CC(C)NC[C@H](O)c3ccc(O)c4[nH]c(=O)ccc34)c2)cc1N(C)C(=O)CCN1CCC(OC(=O)Nc2ccccc2-c2ccccc2)CC1` (stereo partly drawn) [Compound I-45, Biphenyl-2-ylcarbamic acid 1-(2-{[5-(3-{2-[(R)-2-hydroxy-2-(8-hydroxy-2-oxo-1,2-dihydroquinolin-5-yl)-ethylamino]propyl}benzylcarbamoyl)-2-methylphenyl]-methylcarbamoyl}ethyl)piperidin-4-yl ester ditrifluoroacetic acid salt] the figure was below 30%; with `C[C@@H](Cc1cccc(NC(=O)c2cccc(N(C)C(=O)CCN3CCC(OC(=O)Nc4ccccc4-c4ccccc4)CC3)c2)c1)NC[C@H](O)c1ccc(O)c2[nH]c(=O)ccc12` [Compound I-39, ditrifluoroacetic acid salt], below 30%. On the same count and under the same terms, under `C[C@@H](Cc1cccc(CCNC(=O)c2ccc(N(C)C(=O)CCN3CCC(OC(=O)Nc4ccccc4-c4ccccc4)CC3)cc2)c1)NC[C@H](O)c1ccc(O)c2[nH]c(=O)ccc12` [Compound I-56, Biphenyl-2-ylcarbamic acid 1-[2-({4-[2-(3-{(S)-2-[(R)-2-hydroxy-2-(8-hydroxy-2-oxo-1,2-dihydroquinolin-5-yl)-ethylamino]propyl}phenyl)ethylcarbamoyl]phenyl}-methylcarbamoyl)ethyl]piperidin-4-yl ester ditrifluoroacetic acid salt] stands below 30%; under `CN(C(=O)CCN1CCC(OC(=O)Nc2ccccc2-c2ccccc2)CC1)c1cccc(C(=O)Nc2cccc(CCNC[C@H](O)c3ccc(O)c4[nH]c(=O)ccc34)c2)c1` [Compound I-32, ditrifluoroacetic acid salt], below 30%.

For the molecule `C[C@H](Cc1cccc(NC(=O)c2cccc(N(C)C(=O)CCN3CCC(OC(=O)Nc4ccccc4-c4ccccc4)CC3)c2)c1)NC[C@H](O)c1ccc(O)c2[nH]c(=O)ccc12` [Compound I-38, Biphenyl-2-ylcarbamic acid 1-(2-{[3-(3-{(R)-2-[(R)-2-hydroxy-2-(8-hydroxy-2-oxo-1,2-dihydroquinolin-5-yl)-ethylamino]propyl}phenylcarbamoyl)phenyl]methyl-carbamoyl}ethyl)piperidin-4-yl ester ditrifluoroacetic acid salt], the inhibition in vivo at 0.1 mg was below 30%. For `CN(C(=O)CCN1CCC(OC(=O)Nc2ccccc2-c2ccccc2)CC1)c1cccc(C(=O)Nc2ccc(CCNC[C@H](O)c3ccc(O)c4[nH]c(=O)ccc34)cc2)c1` [Compound I-34, Ditrifluoroacetate], the inhibition in vivo at 0.1 mg is above 30%. Still for that read-out and setting: under `Cc1ccc(C(=O)Nc2cccc(CCNC[C@H](O)c3ccc(O)c4[nH]c(=O)ccc34)c2)cc1N(C)C(=O)CCN1CCC(OC(=O)Nc2ccccc2-c2ccccc2)CC1` [Compound I-33, Biphenyl-2-ylcarbamic acid 1-(2-{[5-(3-{2-[(R)-2-hydroxy-2-(8-hydroxy-2-oxo-1,2-dihydroquinolin-5-yl)-ethylamino]ethyl}phenylcarbamoyl)-2-methylphenyl]-methylcarbamoyl}ethyl)piperidin-4-yl ester ditrifluoroacetic acid salt] stands below 30%; under `Cc1cc(NC(=O)c2cccc(N(C)C(=O)CCN3CCC(OC(=O)Nc4ccccc4-c4ccccc4)CC3)c2)c(C)cc1CNC[C@H](O)c1ccc(O)c2[nH]c(=O)ccc12` [Compound I-30, ditrifluoroacetic acid salt], below 30%. Same read-out and setting: under `CC(Cc1ccc(CC(=O)NCc2ccc(N(C)C(=O)CCN3CCC(OC(=O)Nc4ccccc4-c4ccccc4)CC3)cc2)cc1)NC[C@H](O)c1ccc(O)c2[nH]c(=O)ccc12` (stereo partly drawn) [Compound I-80, Biphenyl-2-ylcarbamic acid 1-{2-[(4-{[2-(4-{2-[(R)-2-hydroxy-2-(8-hydroxy-2-oxo-1,2-dihydroquinolin-5-yl)-ethylamino]propyl}phenyl)acetylamino]methyl}-phenyl)methylcarbamoyl]ethyl}piperidin-4-yl ester ditrifluoroacetic acid salt] stands below 30%; under `Cc1ccc(C(=O)Nc2cccc(CC(C)NC[C@H](O)c3ccc(O)c4[nH]c(=O)ccc34)c2)cc1N(C)C(=O)CCN1CCC(OC(=O)Nc2ccccc2-c2ccccc2)CC1` (stereo partly drawn) [Compound I-37, Biphenyl-2-ylcarbamic acid 1-(2-{[5-(3-{2-[(R)-2-hydroxy-2-(8-hydroxy-2-oxo-1,2-dihydroquinolin-5-yl)-ethylamino]propyl}phenylcarbamoyl)-2-methylphenyl]-methylcarbamoyl}ethyl)piperidin-4-yl ester ditrifluoroacetic acid salt], below 30%; under `C[C@@H](Cc1cccc(CC(=O)NCc2ccc(N(C)C(=O)CCN3CCC(OC(=O)Nc4ccccc4-c4ccccc4)CC3)cc2)c1)NC[C@H](O)c1ccc(O)c2[nH]c(=O)ccc12` [Compound I-79, ditrifluoroacetic acid salt], below 30%. Regarding `COc1cc(CNC[C@H](O)c2ccc(O)c3[nH]c(=O)ccc23)ccc1NC(=O)c1cccc(N(C)C(=O)CCN2CCC(OC(=O)Nc3ccccc3-c3ccccc3)CC2)c1` [Compound I-29, ditrifluoroacetic acid salt], the inhibition in vivo at 0.1 mg is below 30%.

As to `Cc1cc(CNC[C@H](O)c2ccc(O)c3[nH]c(=O)ccc23)ccc1NC(=O)c1cccc(N(C)C(=O)CCN2CCC(OC(=O)Nc3ccccc3-c3ccccc3)CC2)c1` [Compound I-27, Biphenyl-2-ylcarbamic acid 1-(2-{[3-(4-{[(R)-2-hydroxy-2-(8-hydroxy-2-oxo-1,2-dihydroquinolin-5-yl)-ethylamino]methyl}-2-methylphenylcarbamoyl)phenyl]-methylcarbamoyl}ethyl)piperidin-4-yl ester ditrifluoroacetic acid salt], the inhibition in vivo at 0.1 mg was below 30%.

Staying with this assay, now noted: inhaled or nasal; rat, 100 μg by inhalation, 24 h after administration; read-out: Broncho. at 24 h; Bronchoprotective effect present at 24 h.
As to `Cc1ccc(C(=O)Nc2ccc(CC(C)NC[C@H](O)c3ccc(O)c4[nH]c(=O)ccc34)cc2)cc1N(C)C(=O)CCN1CCC(OC(=O)Nc2ccccc2-c2ccccc2)CC1` (stereo partly drawn) [Compound I-41, Biphenyl-2-ylcarbamic acid 1-(2-{[5-(4-{2-[(R)-2-hydroxy-2-(8-hydroxy-2-oxo-1,2-dihydroquinolin-5-yl)-ethylamino]propyl}phenylcarbamoyl)-2-methylphenyl]-methylcarbamoyl}ethyl)piperidin-4-yl ester], the inhibition in vivo at 0.1 mg is below 30%.

Staying with this assay, now noted: rat, 100 μg by inhalation, 24 h after administration.
On to `CC(Cc1cccc(CCNC(=O)Cc2ccc(N(C)C(=O)CCN3CCC(OC(=O)Nc4ccccc4-c4ccccc4)CC3)cc2)c1)NC[C@H](O)c1ccc(O)c2[nH]c(=O)ccc12` (stereo partly shown) [Compound I-87], for which the “Broncho. at 24 h; Bronchoprotective effect present at 24 h” value was “Yes (Bronchoprotective effect present at 24 h, e.g., ≧30% inhibition of the MCh response at 24 h in the rat Einthoven assay (100 μg))”. The same measure, in the same setting: under `Cc1ccc(C(=O)Nc2ccc(CCNC[C@H](O)c3ccc(O)c4[nH]c(=O)ccc34)cc2)cc1N(C)C(=O)CCN1CCC(OC(=O)Nc2ccccc2-c2ccccc2)CC1` [Compound I-35] stands “Yes (Bronchoprotective effect present at 24 h, e.g., ≧30% inhibition of the MCh response at 24 h in the rat Einthoven assay (100 μg))”.
